From publication doi:10.1101/2020.06.11.145995v1 (biorxiv, 2020)
Like-named read-outs stand apart in the source and are kept apart here.

Legend:
Assay in all cases: biochemical
CAMK2G = CAMK2G (Homo sapiens, UniProt Q13555)
EGFR = EGFR (Homo sapiens, UniProt P00533)
IRAK1 = IRAK1 (Homo sapiens, UniProt P51617)
FGFR4 = FGFR4 (Homo sapiens, UniProt P22455)
BLK = BLK (Homo sapiens, UniProt P51451)
IKK-beta = IKK-beta (Homo sapiens, UniProt O14920)
MAST1 = MAST1 (Homo sapiens, UniProt Q9Y2H9)
ASK2 = ASK2 (Homo sapiens, UniProt O95382)
CDK5 = CDK5 (Homo sapiens, UniProt Q00535)
FYN = FYN (Homo sapiens, UniProt P06241)
FGFR2 = FGFR2 (Homo sapiens, UniProt P21802)
ACVR1B = ACVR1B (Homo sapiens, UniProt P36896)
CAMK2B = CAMK2B (Homo sapiens, UniProt Q13554)
CLK1 = CLK1 (Homo sapiens, UniProt P49759)
CDK4-cyclinD1 = CDK4-cyclinD1 (Homo sapiens, UniProt P11802)
CIT = CIT (Homo sapiens, UniProt O14578)
GRK7 = GRK7 (Homo sapiens, UniProt Q8WTQ7)
ALK = ALK (Homo sapiens, UniProt Q9UM73)
MRCKB = MRCKB (Homo sapiens, UniProt Q9Y5S2)
MET = MET (Homo sapiens, UniProt P08581)
GAK = GAK (Homo sapiens, UniProt O14976)
MEK2 = MEK2 (Homo sapiens, UniProt P36507)
MLCK = MLCK (Homo sapiens, UniProt Q32MK0)
FRK = FRK (Homo sapiens, UniProt P42685)
AURKB = AURKB (Homo sapiens, UniProt Q96GD4)
CSNK2A1 = CSNK2A1 (Homo sapiens, UniProt P68400)
CAMK1D = CAMK1D (Homo sapiens, UniProt Q8IU85)
MARK3 = MARK3 (Homo sapiens, UniProt P27448)
FGR = FGR (Homo sapiens, UniProt P09769)
DYRK1A = DYRK1A (Homo sapiens, UniProt Q13627)
[1] = read-out: CPT-1-70-1 (1uM) % control
[2] = read-out: HYJ-2-002-1 (1uM) % control

Chain of ASK2 (O95382 whole entry): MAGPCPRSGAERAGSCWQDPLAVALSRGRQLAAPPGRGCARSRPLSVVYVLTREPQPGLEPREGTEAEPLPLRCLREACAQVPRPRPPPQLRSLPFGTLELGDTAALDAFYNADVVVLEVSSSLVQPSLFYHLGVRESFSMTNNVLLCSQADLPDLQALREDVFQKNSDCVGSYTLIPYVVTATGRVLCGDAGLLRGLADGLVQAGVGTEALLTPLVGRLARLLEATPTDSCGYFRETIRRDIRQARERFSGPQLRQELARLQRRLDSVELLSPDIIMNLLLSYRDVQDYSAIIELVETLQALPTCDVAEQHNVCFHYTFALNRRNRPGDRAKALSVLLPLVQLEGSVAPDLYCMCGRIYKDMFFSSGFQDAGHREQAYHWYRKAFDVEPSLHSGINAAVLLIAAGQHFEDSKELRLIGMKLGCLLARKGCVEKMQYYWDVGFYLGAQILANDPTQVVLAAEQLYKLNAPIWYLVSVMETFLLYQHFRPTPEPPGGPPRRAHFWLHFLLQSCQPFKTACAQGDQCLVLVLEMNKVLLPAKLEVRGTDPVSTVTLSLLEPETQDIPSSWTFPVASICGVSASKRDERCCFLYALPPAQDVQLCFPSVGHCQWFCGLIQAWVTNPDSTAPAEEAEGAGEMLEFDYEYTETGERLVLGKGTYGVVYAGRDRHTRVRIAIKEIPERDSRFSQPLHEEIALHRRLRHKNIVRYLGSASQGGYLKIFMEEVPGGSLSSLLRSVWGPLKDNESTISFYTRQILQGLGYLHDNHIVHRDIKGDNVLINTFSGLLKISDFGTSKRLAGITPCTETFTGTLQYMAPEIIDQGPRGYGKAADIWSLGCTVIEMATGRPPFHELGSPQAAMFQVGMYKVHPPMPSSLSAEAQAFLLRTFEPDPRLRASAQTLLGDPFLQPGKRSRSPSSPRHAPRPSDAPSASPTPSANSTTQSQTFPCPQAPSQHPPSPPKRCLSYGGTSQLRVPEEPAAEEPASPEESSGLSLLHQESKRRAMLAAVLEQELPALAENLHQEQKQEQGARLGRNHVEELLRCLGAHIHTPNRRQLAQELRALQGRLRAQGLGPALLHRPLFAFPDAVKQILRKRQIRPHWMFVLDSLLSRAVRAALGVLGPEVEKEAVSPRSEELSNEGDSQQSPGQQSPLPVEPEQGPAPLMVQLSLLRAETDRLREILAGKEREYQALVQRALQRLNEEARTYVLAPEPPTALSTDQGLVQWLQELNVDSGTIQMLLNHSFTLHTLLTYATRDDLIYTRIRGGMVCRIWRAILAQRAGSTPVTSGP
Chain of MRCKB (Q9Y5S2 whole entry): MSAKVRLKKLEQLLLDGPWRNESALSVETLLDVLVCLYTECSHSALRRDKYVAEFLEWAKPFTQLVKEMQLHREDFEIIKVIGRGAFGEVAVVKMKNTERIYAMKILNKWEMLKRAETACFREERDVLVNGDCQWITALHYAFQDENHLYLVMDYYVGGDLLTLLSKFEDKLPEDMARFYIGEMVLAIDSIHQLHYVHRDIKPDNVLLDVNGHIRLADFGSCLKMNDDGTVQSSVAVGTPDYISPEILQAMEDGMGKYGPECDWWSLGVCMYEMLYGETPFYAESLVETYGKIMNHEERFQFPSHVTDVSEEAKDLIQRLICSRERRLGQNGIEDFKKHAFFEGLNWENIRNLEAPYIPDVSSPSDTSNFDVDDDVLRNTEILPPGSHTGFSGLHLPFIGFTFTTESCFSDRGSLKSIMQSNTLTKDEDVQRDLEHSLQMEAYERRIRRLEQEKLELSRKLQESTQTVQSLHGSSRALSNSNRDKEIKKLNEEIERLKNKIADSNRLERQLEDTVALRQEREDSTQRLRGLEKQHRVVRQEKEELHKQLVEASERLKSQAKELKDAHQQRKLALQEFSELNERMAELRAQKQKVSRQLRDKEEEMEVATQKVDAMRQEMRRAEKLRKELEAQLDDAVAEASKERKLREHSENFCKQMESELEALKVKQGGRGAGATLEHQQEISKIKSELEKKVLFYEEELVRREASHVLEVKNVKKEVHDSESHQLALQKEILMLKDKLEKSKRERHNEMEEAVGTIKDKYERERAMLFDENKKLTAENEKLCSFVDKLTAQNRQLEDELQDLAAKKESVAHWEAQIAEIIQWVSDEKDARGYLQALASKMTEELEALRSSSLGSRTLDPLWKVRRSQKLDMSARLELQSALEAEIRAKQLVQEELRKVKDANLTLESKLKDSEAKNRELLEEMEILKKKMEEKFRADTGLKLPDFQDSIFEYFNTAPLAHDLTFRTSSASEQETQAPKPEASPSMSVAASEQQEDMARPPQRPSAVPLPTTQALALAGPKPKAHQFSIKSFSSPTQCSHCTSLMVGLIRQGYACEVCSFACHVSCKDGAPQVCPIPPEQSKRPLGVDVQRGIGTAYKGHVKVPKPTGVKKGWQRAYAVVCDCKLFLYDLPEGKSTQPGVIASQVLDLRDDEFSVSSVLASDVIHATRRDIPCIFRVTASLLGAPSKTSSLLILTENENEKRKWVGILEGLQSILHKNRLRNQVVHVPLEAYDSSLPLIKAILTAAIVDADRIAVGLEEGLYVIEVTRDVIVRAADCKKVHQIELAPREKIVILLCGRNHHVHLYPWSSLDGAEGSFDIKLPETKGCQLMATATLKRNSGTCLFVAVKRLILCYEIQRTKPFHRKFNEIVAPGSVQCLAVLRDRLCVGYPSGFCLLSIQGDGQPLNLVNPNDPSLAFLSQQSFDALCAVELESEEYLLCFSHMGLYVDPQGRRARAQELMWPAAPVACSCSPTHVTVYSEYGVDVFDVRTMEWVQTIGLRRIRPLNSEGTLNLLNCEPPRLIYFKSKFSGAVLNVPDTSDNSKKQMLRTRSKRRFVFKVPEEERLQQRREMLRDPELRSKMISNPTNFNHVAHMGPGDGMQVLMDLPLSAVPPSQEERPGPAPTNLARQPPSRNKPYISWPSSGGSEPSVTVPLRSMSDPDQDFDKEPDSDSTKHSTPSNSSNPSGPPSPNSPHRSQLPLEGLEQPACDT
Chain of MARK3 (P27448 whole entry): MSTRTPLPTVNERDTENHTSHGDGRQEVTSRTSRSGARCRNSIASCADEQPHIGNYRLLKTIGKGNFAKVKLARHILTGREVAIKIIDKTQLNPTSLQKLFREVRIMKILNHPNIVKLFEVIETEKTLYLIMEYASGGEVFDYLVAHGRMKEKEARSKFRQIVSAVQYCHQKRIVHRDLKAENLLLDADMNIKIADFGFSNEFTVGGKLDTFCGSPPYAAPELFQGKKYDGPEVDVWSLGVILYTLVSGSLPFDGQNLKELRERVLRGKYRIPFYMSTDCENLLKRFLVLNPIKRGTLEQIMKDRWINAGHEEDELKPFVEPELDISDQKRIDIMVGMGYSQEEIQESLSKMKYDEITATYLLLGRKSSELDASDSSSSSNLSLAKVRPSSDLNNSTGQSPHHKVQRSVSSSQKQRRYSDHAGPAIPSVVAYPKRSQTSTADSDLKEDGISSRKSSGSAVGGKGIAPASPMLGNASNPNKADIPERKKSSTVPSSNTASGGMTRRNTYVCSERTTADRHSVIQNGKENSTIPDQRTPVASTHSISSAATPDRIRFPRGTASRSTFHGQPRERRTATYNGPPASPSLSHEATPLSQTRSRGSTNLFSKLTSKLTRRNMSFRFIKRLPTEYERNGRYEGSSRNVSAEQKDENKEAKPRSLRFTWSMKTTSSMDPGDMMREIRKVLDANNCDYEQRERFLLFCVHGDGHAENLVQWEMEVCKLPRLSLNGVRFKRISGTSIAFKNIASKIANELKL
Chain of MLCK (Q32MK0 whole entry): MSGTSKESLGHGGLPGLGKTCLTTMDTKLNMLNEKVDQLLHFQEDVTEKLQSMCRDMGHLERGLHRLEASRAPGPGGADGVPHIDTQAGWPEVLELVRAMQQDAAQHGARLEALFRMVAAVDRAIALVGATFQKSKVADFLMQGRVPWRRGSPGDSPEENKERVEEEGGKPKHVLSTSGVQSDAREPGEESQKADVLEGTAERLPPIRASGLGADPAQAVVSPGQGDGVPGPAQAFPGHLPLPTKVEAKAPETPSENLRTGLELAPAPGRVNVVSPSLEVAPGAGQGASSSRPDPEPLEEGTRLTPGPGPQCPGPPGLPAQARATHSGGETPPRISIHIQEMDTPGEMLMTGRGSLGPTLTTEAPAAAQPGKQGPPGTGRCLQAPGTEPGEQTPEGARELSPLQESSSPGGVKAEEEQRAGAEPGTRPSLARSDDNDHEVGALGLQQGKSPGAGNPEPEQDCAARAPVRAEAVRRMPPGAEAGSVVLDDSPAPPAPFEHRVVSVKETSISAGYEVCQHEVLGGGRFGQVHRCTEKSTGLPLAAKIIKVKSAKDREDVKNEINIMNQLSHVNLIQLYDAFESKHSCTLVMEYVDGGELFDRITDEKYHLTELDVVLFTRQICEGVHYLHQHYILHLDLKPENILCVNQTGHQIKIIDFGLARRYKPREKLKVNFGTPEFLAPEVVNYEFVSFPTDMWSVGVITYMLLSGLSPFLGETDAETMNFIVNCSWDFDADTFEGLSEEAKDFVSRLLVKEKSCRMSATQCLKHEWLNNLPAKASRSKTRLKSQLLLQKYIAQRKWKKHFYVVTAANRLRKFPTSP
Chain of AURKB (Q96GD4 whole entry): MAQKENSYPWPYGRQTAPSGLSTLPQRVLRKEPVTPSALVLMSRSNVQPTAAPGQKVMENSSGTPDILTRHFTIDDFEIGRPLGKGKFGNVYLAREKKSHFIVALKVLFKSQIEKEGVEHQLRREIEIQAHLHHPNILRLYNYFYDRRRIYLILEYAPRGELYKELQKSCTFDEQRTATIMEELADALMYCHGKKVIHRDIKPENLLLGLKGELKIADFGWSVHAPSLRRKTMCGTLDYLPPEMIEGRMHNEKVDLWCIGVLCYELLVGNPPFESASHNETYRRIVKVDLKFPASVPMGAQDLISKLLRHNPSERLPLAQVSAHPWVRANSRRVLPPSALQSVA

Structure (SMILES): CN1CCN(c2ccc(Nc3nc(Oc4ccc(NC(=O)CCl)cc4)c4cc[nH]c4n3)cc2)CC1 [CPT1-70-1]
- remaining activity at 1 µM (CAMK2G; [1]): 100%
- remaining activity at 1 µM (EGFR; [1]): 63%
- remaining activity at 1 µM (IRAK1; [1]): 53%
- remaining activity at 1 µM (FGFR4; [1]): 60%
- remaining activity at 1 µM (BLK; [1]): 1.6%
- remaining activity at 1 µM (IKK-beta; [1]): 100%
- remaining activity at 1 µM (MAST1; [1]): 100%
- remaining activity at 1 µM (ASK2; [1]): 100%
- remaining activity at 1 µM (CDK5; [1]): 100%
- remaining activity at 1 µM (FYN; [1]): 90%
- remaining activity at 1 µM (FGFR2; [1]): 22%
- remaining activity at 1 µM (ACVR1B; [1]): 100%
- remaining activity at 1 µM (CAMK2B; [1]): 100%
- remaining activity at 1 µM (CLK1; [1]): 5.8%
- remaining activity at 1 µM (CDK4-cyclinD1; [1]): 81%
- remaining activity at 1 µM (CIT; [1]): 26%
- remaining activity at 1 µM (GRK7; [1]): 100%
- remaining activity at 1 µM (ALK; [1]): 38%
- remaining activity at 1 µM (MRCKB; [1]): 100%
- remaining activity at 1 µM (MET; [1]): 28%
- remaining activity at 1 µM (GAK; [1]): 7.9%
- remaining activity at 1 µM (MEK2; [1]): 19%
- remaining activity at 1 µM (MLCK; [1]): 100%
- remaining activity at 1 µM (FRK; [1]): 100%
- remaining activity at 1 µM (AURKB; [1]): 61%
- remaining activity at 1 µM (CSNK2A1; [1]): 35%
- remaining activity at 1 µM (CAMK1D; [1]): 56%
- remaining activity at 1 µM (MARK3; [1]): 9.2%
- remaining activity at 1 µM (FGR; [1]): 4.2%
- remaining activity at 1 µM (DYRK1A; [1]): 100%

Structure (SMILES): CCN1CCN(Cc2ccc(NC(=O)c3ccc(C)c(CCc4cnc5[nH]ccc5c4OC)c3)cc2C(F)(F)F)CC1 [HYJ-2-002-1]
- remaining activity at 1 µM (CAMK2G; [2]): 100%
- remaining activity at 1 µM (EGFR; [2]): 5%
- remaining activity at 1 µM (IRAK1; [2]): 62%
- remaining activity at 1 µM (FGFR4; [2]): 4.4%
- remaining activity at 1 µM (BLK; [2]): 0.1%
- remaining activity at 1 µM (IKK-beta; [2]): 0.3%
- remaining activity at 1 µM (MAST1; [2]): 99%
- remaining activity at 1 µM (ASK2; [2]): 100%
- remaining activity at 1 µM (CDK5; [2]): 100%
- remaining activity at 1 µM (FYN; [2]): 2.2%
- remaining activity at 1 µM (FGFR2; [2]): 5.7%
- remaining activity at 1 µM (ACVR1B; [2]): 100%
- remaining activity at 1 µM (CAMK2B; [2]): 74%
- remaining activity at 1 µM (CLK1; [2]): 57%
- remaining activity at 1 µM (CDK4-cyclinD1; [2]): 80%
- remaining activity at 1 µM (CIT; [2]): 6.7%
- remaining activity at 1 µM (GRK7; [2]): 100%
- remaining activity at 1 µM (ALK; [2]): 75%
- remaining activity at 1 µM (MRCKB; [2]): 100%
- remaining activity at 1 µM (MET; [2]): 59%
- remaining activity at 1 µM (GAK; [2]): 4.8%
- remaining activity at 1 µM (MEK2; [2]): 22%
- remaining activity at 1 µM (MLCK; [2]): 89%
- remaining activity at 1 µM (FRK; [2]): 1.4%
- remaining activity at 1 µM (AURKB; [2]): 43%
- remaining activity at 1 µM (CSNK2A1; [2]): 94%
- remaining activity at 1 µM (CAMK1D; [2]): 94%
- remaining activity at 1 µM (MARK3; [2]): 100%
- remaining activity at 1 µM (FGR; [2]): 0.75%
- remaining activity at 1 µM (DYRK1A; [2]): 62%
